In patent US20060135785A1, “Alpha-phenyl acetanilide derivatives having an acat inhibiting activity and the therapeutic application thereof” (Pierre Fabre Medicament, priority 2002, published 2006):
Read-outs that look alike come from different tables or passages of the source.

Tests used:
plasma cholesterol = assay: Blood cholesterol-lowering activity in rats on hypercholesterolemic diet; type: in vivo, rat; conditions: male rats, Altromin C 1061 hypercholesterolemic diet 4 days, dose that reduces the plasma cholesterol concentration by half compared with control animals
Method: Male rats (160-180 g) were subjected, for 4 days, to an Altromin C 1061 hypercholesterolemic diet and treated in parallel orally with the compounds in suspension in a solution of 2% Tween 80 in distilled water.
On the 5th day, the animals not fasting are anaesthetized with ethyl ether, and bled out on EDTA via the abdominal aorta. The blood is immediately centrifuged and the plasma is stored at 4° C.
The plasma cholesterol is then assayed by the CHOD-PAP method (Boehringer Mannheim Ref. 237574). The 50% effective dose (ED50) corresponds to the dose that reduces the plasma cholesterol concentration by half compared with control animals.

[1] = Rattus norvegicus, po, 96 h, read-out: ED50

melting point [°C] | SMILES | ED50 (plasma cholesterol; oral) [mg/kg] | ED50 (plasma cholesterol; [1]) [mg/kg]
168 | CCCCCCCCCCCCn1nnc(C(F)(C(=O)Nc2c(C)c(C)c(N)c(C)c2C)c2ccccc2)n1.Cl (stereo not shown) |  | 
 | CCCCCCCCCCCCn1nnc(C(C(=O)Nc2cc(C)c(O)c(C)c2C)c2ccccc2)n1 (single isomer, unassigned; (+)) [Compound 5, (+)-2′,3′,5′-Trimethyl-4′-hydroxy-α-(2-dodecyl-2H-5-tetrazolyl)-α-phenylacetanilide] | 0.025 | 
 | CCCCCCCCCCCCn1nnc(C(F)(C(=O)Nc2cc(C)c(O)c(C)c2C)c2ccccc2)n1 (single isomer, unassigned; (+)) [Compound 9, (+)-21,3′,5′-Trimethyl-4′-hydroxy-α-(2-dodecyl-2H-5-tetrazolyl)-α-fluoro-α-phenylacetanilide] |  | 0.012
 | CCCCCCCCCCCCS(=O)(=O)[C@H](C(=O)Nc1cc(C)c(O)c(C)c1C)c1ccccc1 [Compound 1, (S)-2′,3′,5′-Trimethyl-4′-hydroxy-α-dodecylsulfonyl-α-phenylacetanilide] |  | 0.25
 | CCCCCCCCCCCCS(=O)(=O)C(F)(C(=O)Nc1cc(C)c(O)c(C)c1C)c1ccccc1 (stereo not drawn) [Compound 3, 2′,3′,5′-Trimethyl-4′-hydroxy-α-dodecylsulfonyl-α-fluoro-α-phenylacetanilide] |  | 0.022
105 | CCCCCCCCCCCCn1nnc(C(C(=O)Nc2cc(C)c(O)c(C)c2C)c2ccccc2)n1 (stereo not drawn) [Compound 4, 2′,3′,5′-Trimethyl-4′-hydroxy-α-(2-dodecyl-2H-5-tetrazolyl)-α-phenylacetanilide] |  | 0.029
96 | Cc1cc(NC(=O)C(F)(c2ccccc2)c2nnn(CCCCCCCCCCCC(F)F)n2)c(C)c(C)c1O (stereo not drawn) [Compound 10, 2′,3′,5′-Trimethyl-4′-hydroxy-α-[2-(12,12-difluoro-dodecyl)-2H-5-tetrazolyl]-α-fluoro-α-phenylacetanilide] |  | 0.029
 | CCCCCCCCCCCCS[C@H](C(=O)Nc1cc(C)c(O)c(C)c1C)c1ccccc1 [Eflucimibe, reference compound] |  | 0.12
